Experimental data as given in ChEMBL document CHEMBL1155822, “Inhibition of acetylcholinesterase, beta-amyloid aggregation, and NMDA receptors in Alzheimer's disease: a promising direction for the multi-target-directed ligands gold rush” (J Med Chem, 2008).

Experiments:
Acetylcholinesterase = Acetylcholinesterase (Homo sapiens, UniProt P22303)
Description: Inhibition of human recombinant AChE by Ellman's method

[1] = target: Glutamate NMDA receptor; GRIN1/GRIN2B (Homo sapiens, UniProt Q05586+Q13224)
Description: Inhibition of NMDA NR1/NR2B receptor expressed in xenopus oocytes assessed as inhibition of NMDA and glycine-induced current response by two-electrode voltage clamp assay

Cholinesterase = Cholinesterase (Homo sapiens, UniProt P06276); assay: Inhibition of human serum BChE by Ellman's method
Cholinesterase, sequence (P06276 whole entry): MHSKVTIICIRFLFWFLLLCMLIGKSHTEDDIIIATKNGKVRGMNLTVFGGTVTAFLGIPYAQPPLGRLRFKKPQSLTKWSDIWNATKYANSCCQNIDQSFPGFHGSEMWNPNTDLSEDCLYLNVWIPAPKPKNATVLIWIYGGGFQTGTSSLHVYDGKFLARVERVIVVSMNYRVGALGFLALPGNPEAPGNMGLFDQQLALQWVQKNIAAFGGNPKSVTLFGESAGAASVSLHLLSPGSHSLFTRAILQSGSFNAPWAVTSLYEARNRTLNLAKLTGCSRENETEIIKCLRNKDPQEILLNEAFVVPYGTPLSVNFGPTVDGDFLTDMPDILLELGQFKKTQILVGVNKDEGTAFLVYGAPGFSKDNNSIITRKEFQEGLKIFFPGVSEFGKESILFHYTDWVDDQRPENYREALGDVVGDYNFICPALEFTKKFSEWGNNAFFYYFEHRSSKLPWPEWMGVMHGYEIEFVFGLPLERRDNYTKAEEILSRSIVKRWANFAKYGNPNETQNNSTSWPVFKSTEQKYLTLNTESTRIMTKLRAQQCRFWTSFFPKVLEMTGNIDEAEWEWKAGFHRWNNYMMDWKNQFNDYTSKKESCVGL

SH-SY5Y = assay: Antioxidant activity against tert-butyl hydroperoxide-induced ROS evoked cell death in human SH-SY5Y cells; assay type: functional, cell-based

Glutamate NMDA receptor; GRIN1/GRIN2B, sequence (Q13224 whole entry, other chains not shown): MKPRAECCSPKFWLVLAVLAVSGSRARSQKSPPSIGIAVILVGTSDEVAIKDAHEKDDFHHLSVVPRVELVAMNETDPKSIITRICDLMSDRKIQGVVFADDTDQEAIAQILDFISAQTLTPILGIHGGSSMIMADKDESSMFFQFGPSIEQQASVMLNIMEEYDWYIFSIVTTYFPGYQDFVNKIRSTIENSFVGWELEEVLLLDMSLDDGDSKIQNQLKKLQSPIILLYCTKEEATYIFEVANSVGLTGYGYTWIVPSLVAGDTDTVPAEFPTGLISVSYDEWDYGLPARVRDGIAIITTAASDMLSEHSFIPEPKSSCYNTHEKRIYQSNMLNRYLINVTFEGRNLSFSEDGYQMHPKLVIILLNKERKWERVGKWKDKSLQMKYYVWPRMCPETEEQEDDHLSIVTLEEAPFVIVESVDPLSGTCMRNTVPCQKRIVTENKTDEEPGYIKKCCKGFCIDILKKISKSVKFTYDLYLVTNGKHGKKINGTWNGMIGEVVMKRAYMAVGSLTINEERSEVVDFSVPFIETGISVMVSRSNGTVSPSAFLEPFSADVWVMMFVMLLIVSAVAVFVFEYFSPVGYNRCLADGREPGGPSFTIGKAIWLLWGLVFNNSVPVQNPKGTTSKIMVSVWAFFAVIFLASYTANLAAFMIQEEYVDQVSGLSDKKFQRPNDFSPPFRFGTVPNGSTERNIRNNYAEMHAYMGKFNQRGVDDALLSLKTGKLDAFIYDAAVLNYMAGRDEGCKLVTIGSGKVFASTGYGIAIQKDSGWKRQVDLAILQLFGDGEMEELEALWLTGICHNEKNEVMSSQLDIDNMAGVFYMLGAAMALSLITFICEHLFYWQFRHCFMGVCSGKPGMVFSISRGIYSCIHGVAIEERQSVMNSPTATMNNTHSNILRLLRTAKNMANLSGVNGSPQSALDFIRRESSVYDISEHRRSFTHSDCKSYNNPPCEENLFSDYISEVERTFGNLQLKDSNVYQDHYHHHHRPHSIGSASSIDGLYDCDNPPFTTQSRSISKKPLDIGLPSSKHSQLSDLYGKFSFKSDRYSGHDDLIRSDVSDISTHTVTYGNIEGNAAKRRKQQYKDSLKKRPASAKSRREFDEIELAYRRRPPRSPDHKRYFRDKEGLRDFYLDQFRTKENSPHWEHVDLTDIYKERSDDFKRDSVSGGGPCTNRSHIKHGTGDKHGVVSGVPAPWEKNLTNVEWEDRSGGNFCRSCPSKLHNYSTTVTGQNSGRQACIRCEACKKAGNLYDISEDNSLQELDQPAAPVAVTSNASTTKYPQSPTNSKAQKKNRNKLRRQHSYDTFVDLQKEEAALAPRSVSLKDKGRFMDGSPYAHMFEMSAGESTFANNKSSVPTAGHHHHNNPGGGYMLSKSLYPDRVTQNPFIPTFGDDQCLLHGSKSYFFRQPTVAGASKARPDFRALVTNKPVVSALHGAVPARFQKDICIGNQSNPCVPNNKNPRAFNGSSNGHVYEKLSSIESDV
Acetylcholinesterase, sequence (P22303 whole entry): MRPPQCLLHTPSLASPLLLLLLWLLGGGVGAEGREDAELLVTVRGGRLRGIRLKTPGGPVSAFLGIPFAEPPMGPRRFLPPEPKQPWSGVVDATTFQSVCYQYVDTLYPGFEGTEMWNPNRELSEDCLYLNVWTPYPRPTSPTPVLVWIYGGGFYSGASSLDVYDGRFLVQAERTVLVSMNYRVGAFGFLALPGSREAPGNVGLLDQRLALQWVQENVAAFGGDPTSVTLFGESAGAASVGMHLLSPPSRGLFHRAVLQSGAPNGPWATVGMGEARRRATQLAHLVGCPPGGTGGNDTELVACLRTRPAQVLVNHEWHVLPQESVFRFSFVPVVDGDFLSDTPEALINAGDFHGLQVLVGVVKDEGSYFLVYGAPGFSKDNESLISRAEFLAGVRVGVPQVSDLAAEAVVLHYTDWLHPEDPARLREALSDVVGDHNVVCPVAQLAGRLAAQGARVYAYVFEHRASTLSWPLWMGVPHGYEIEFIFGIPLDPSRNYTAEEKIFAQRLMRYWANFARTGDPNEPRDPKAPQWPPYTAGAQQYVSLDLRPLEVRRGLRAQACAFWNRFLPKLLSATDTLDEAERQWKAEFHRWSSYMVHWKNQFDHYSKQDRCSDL

SMILES | IC50 (Acetylcholinesterase) [nM] | IC50 [1] [nM] | IC50 (Cholinesterase) [nM] | IC50 (SH-SY5Y) [nM]
Clc1ccc2c(NCCCNCCCCCOc3cccc4[nH]c5ccccc5c34)c3c(nc2c1)CCCC3 | 1.54 | 18200 | 189 | –
Oc1cccc2[nH]c3ccccc3c12 | – | – | – | 70
Clc1ccc2c(NCCCNCCCCOc3cccc4[nH]c5ccccc5c34)c3c(nc2c1)CCCC3 | 1.65 | 30300 | 211 | –
Clc1ccc2c(NCCCNCCCOc3cccc4[nH]c5ccccc5c34)c3c(nc2c1)CCCC3 [CARBACRINE] | 2.15 | 740 | 296 | 23000
Cc1c(C)c2c(c(C)c1O)CCC(C)(C(=O)O)O2 (stereo not given) [TROLOX] | – | – | – | 49600
Clc1ccc2c(NCCCNCCCCCCOc3cccc4[nH]c5ccccc5c34)c3c(nc2c1)CCCC3 | 2.57 | 13000 | 137 | –
